Assays:
[1] = system: G. vaginalis ATCC 14018 planktonic cells; experiment: Checkerboard assay / MIC against planktonic cells; type: cell-based; conditions: Gardnerella vaginalis, ATCC14018; agent alone, planktonic G. vaginalis 14018, 24 h anaerobic, 37° C.; read-out: minimal inhibitory concentration (MIC)
Experimental: From each dilution of boric acid, 50 μl was added horizontally over 50 μl of metronidazole or tinidazole.
The FIC index (FICI) for the combination of two agents is the sum of their individual FIC values.

[2] = system: biofilm formation by G. vaginalis ATCC 14018; experiment: Inhibition of biofilm formation (MIC-B, crystal violet staining, checkerboard); type: cell-based, Gardnerella vaginalis; conditions: for MIC: Gardnerella vaginalis, ATCC14018, read-out: MIC-B90
Experimental: Combinations of boric acid with metronidazole or tinidazole were tested in vitro in a non-planktonic, biofilm model for inhibition of biofilm formation by G. vaginalis (ATCC strain 14018).
Bacterial strain, culture media and growth conditions: From the frozen stock (−80° C.), G. vaginalis ATCC 14018 was inoculated in three culture media and propagated at 37° C. for 48 h. Brain-heart infusion (BHI) broth (Difco BD, Franklin, NJ, USA) supplemented with horse serum 3% (JRH Biosciences, KS) was used to maintain microbial growth. […] (HBT) agar (Remel, Lenexa, KS, USA) was used to confirm the purity of the frozen stock. The inoculated broth and HBT agar were incubated anaerobically (10% hydrogen, 5% carbon dioxide and 85% nitrogen) using an anaerobic gloves box (Coy Laboratory Products, Inc., Grass Lake, MI, USA). After the incubation period, the bacterial cells were transferred to BHI broth supplemented with 1% glucose (Fisher Scientific, Waltham, MA, USA) (BHIG), every 24 h twice prior to the initiation of an experiment. In order to provide suitable conditions for G. vaginalis anaerobic growth and to avoid oxidative stress, culture media were pre-incubated in the anaerobic chamber at least overnight before bacterial inoculation.
Stock solutions of antibacterial agents: Antimicrobials were evaluated for their activity against biofilm-associated G. vaginalis. Metronidazole was purchased from Alfa Aesar (Ward Hill, Massachusetts, USA). Metronidazole was prepared as a stock solution of 10 mg mL^−1 in ddH2O. Tinidazole was purchased from TCI America (Portland, OR, USA). Tinidazole was prepared as a stock solution of 10 mg/ml in DMSO. Boric acid was purchased from Fisher Chemical (Hampton, NH, USA). A fresh 1 mg mL^−1 boric acid solution in BHIG was prepared at the beginning of each experiment within the anaerobic chamber, and mixed with BHIG that had been in the anaerobic chamber overnight (to avoid oxidative stress). The stock solutions of antimicrobials were sterilized using syringe filter 0.45 μm and kept in the refrigerator for a maximum of 3 weeks. On the day of the experiment, the stock solutions were diluted in the anaerobic chamber (to avoid oxidative stress) with pre-incubated BHIG broth to avoid changing the concentrations of nutrients of growth media.
Determination of minimum biofilm inhibitory concentrations (MICs-B): MIC determination was performed according to Sutyak et al. (Antimicrob Agents, Ch 56: 1756-61, 2012) with minor modifications. Each agent was diluted two-fold with BHIG broth into two separate 96-well non-tissue culture microplates. From each dilution of boric acid, 50 μl was added horizontally over 50 μl of metronidazole or tinidazole. The final volume of antimicrobial agents diluted into the broth was 100 μL in each well. The overnight cell culture at 3±2×10^8 CFU mL^−1 was diluted in BHIG to a final concentration of 5×10^6 CFU mL^−1. From the diluted bacterial cells, 100 μL was transferred into the wells containing predetermined concentrations of antimicrobials. Sterile sealing tape (Thermo Fisher Scientific, Rochester, NY) was used to prevent evaporation. The 96-well plate was then incubated anaerobically at 37° C. for 48 h. After incubation, the biofilm was stained using 0.1% crystal violet as described by Algburi et al. (Antimicrob Agents, Ch. 61: e00650-17, 2017); Weeks et al. (Pathog Dis 77(8):ftz059, 2019; doi: 10.1093/femspd/ftz059).
Biofilm staining using CV: Biofilm staining using CV was performed as described by Borucki et al. (Appl Environ Microbiol, 69(12):7336-42, 2003, doi: 10.1128/AEM.69.12.7336-7342.2003) with minor modifications. Briefly, after counting of the non-adherent cells, the biofilm was fixed at 60° C. for 60 minutes in an inverted position in an incubator (New Brunswick Scientific Co., Inc., NJ, USA). To each well, 125 μl of 0.1% CV was added and left at room temperature for 20 minutes.

[3] = concentration needed to inhibit 90% of biofilm, agent alone

OB(O)O [boric acid]
MIC [1]: 1.25 µg/mL
MIC [2, 3]: 2.5 µg/mL
MIC-B90 [2, 3]: 0.25 % m/v
Biofilm mass as a percentage of an untreated control ([2]; well A10: boric acid 0.5 m/v alone (metronidazole 0)): −2%
Biofilm mass as a percentage of an untreated control ([2]; well A10: boric acid 0.5 m/v alone (tinidazole 0)): −1%
Biofilm mass as a percentage of an untreated control ([2]; well B10: boric acid 0.25 m/v alone (metronidazole 0)): −1%
Biofilm mass as a percentage of an untreated control ([2]; well B10: boric acid 0.25 m/v alone (tinidazole 0)): 0%
Biofilm mass as a percentage of an untreated control ([2]; well C10: boric acid 0.125 m/v alone (metronidazole 0)): 85%
Biofilm mass as a percentage of an untreated control ([2]; well C10: boric acid 0.125 m/v alone (tinidazole 0)): 63%
Biofilm mass as a percentage of an untreated control ([2]; well D10: boric acid 0.0625 m/v alone (metronidazole 0)): 95%
Biofilm mass as a percentage of an untreated control ([2]; well D10: boric acid 0.0625 m/v alone (tinidazole 0)): 88%
Biofilm mass as a percentage of an untreated control ([2]; well E10: boric acid 0.03125 m/v alone (metronidazole 0)): 92%
Biofilm mass as a percentage of an untreated control ([2]; well E10: boric acid 0.03125 m/v alone (tinidazole 0)): 93%
Biofilm mass as a percentage of an untreated control ([2]; well F10: boric acid 0.015625 m/v alone (metronidazole 0)): 100%
Biofilm mass as a percentage of an untreated control ([2]; well F10: boric acid 0.015625 m/v alone (tinidazole 0)): 95%
Biofilm mass as a percentage of an untreated control ([2]; well G10: boric acid 0.007813 m/v alone (metronidazole 0)): 101%
Biofilm mass as a percentage of an untreated control ([2]; well G10: boric acid 0.007813 m/v alone (tinidazole 0)): 98%

Cc1ncc([N+](=O)[O-])n1CCO [metronidazole]
MIC [1]: 6.25 µg/mL
MIC [2, 3]: 25 µg/mL
Biofilm mass as a percentage of an untreated control ([2]; well H1: metronidazole 25 μg/ml alone (boric acid 0)): 0%
Biofilm mass as a percentage of an untreated control ([2]; well H2: metronidazole 12.5 μg/ml alone (boric acid 0)): 11%
Biofilm mass as a percentage of an untreated control ([2]; well H3: metronidazole 6.25 μg/ml alone (boric acid 0)): 61%
Biofilm mass as a percentage of an untreated control ([2]; well H4: metronidazole 3.125 μg/ml alone (boric acid 0)): 73%
Biofilm mass as a percentage of an untreated control ([2]; well H5: metronidazole 1.5625 μg/ml alone (boric acid 0)): 88%
Biofilm mass as a percentage of an untreated control ([2]; well H6: metronidazole 0.78125 μg/ml alone (boric acid 0)): 96%
Biofilm mass as a percentage of an untreated control ([2]; well H7: metronidazole 0.390625 μg/ml alone (boric acid 0)): 95%
Biofilm mass as a percentage of an untreated control ([2]; well H8: metronidazole 0.195313 μg/ml alone (boric acid 0)): 123%
Biofilm mass as a percentage of an untreated control ([2]; well H9: metronidazole 0.09765625 μg/ml alone (boric acid 0)): 100%

CCS(=O)(=O)CCn1c([N+](=O)[O-])cnc1C [tinidazole]
MIC [1]: 1.56 µg/mL
MIC [2, 3]: 25 µg/mL
Biofilm mass as a percentage of an untreated control ([2]; well H1: tinidazole 25 μg/ml alone (boric acid 0)): 6%
Biofilm mass as a percentage of an untreated control ([2]; well H2: tinidazole 12.5 μg/ml alone (boric acid 0)): 15%
Biofilm mass as a percentage of an untreated control ([2]; well H3: tinidazole 6.25 μg/ml alone (boric acid 0)): 33%
Biofilm mass as a percentage of an untreated control ([2]; well H4: tinidazole 3.125 μg/ml alone (boric acid 0)): 104%
Biofilm mass as a percentage of an untreated control ([2]; well H5: tinidazole 1.5625 μg/ml alone (boric acid 0)): 133%
Biofilm mass as a percentage of an untreated control ([2]; well H6: tinidazole 0.78125 μg/ml alone (boric acid 0)): 134%
Biofilm mass as a percentage of an untreated control ([2]; well H7: tinidazole 0.390625 μg/ml alone (boric acid 0)): 88%
Biofilm mass as a percentage of an untreated control ([2]; well H8: tinidazole 0.195313 μg/ml alone (boric acid 0)): 92%
Biofilm mass as a percentage of an untreated control ([2]; well H9: tinidazole 0.09765625 μg/ml alone (boric acid 0)): 95%
